Measurements as given in ChEMBL document CHEMBL1909046, “DrugMatrix in vitro pharmacology data”.

Key:
[1] = target: Nitric oxide synthase 1 (Rattus norvegicus, UniProt P29476); assay type: tissue-based, Cerebellum; further: in other assays of this panel Not Active means under 50% inhibition at 10 µM
[2] = DRUGMATRIX: Sigma2 radioligand binding (ligand: [3H] Ifenprodil); assay type: cell membranes, Rattus norvegicus, Wistar, Brain, Membrane; details: Not Active = under 50% inhibition at 10 µM
[3] = DRUGMATRIX: beta-Lactamase enzyme inhibition (substrate: Nitrocefin); set-up: species or system Bacillus cereus; details: Not Active = under 50% inhibition at 10 µM
[4] = target: T1, Angiotensin-converting enzyme (Oryctolagus cuniculus, UniProt P12822); assay: biochemical; assay type: tissue-based, Lung;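 further: enzymatic inhibition of angiotensin-converting enzyme measured with FAPGG as the substrate; in other assays of this panel Not Active means under 50% inhibition at 10 µM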
T1 sequence (P12822 whole entry): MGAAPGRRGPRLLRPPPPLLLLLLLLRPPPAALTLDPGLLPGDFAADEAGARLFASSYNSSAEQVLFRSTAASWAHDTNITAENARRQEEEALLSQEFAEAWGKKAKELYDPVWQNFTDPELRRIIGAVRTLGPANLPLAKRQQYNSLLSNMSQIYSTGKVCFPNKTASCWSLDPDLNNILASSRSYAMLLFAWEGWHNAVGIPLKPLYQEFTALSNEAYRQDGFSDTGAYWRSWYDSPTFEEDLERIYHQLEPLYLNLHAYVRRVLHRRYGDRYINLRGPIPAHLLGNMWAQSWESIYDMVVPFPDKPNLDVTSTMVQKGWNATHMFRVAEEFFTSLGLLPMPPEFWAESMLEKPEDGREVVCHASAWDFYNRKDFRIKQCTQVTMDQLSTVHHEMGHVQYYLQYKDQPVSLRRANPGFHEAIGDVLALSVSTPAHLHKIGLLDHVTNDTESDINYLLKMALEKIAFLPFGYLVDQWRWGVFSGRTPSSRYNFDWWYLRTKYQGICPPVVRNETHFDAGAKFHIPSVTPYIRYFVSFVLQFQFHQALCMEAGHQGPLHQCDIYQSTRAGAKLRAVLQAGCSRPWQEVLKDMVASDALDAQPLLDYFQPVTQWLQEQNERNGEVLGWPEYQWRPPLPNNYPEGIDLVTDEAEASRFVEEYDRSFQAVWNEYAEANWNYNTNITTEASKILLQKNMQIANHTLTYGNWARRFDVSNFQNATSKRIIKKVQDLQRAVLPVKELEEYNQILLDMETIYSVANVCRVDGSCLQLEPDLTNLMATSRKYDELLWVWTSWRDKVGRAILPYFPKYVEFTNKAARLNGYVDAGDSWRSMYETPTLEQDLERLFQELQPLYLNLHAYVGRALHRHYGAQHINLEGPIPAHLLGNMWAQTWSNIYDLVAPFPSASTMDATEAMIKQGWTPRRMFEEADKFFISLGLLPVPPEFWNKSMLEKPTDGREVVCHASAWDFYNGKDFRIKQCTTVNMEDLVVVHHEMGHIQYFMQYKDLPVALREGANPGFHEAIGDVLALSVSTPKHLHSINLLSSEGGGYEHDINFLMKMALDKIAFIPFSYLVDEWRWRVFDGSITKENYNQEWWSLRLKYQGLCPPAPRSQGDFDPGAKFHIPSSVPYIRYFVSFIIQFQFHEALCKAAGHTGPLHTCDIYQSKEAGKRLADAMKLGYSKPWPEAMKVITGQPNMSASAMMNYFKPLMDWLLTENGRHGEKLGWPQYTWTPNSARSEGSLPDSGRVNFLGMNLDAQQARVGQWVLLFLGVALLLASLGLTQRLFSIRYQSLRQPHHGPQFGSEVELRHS

[5] = DRUGMATRIX: Potassium Channel [KATP] radioligand binding (ligand: [3H] Glyburide); assay type: cell membranes, Membrane; details: hit-t15; Not Active = under 50% inhibition at 10 µM
[6] = target: T2, Muscarinic acetylcholine receptor M5 (Homo sapiens, UniProt P08912); assay type: cell membranes, CHO-K1, Membrane; details: cho-k1; further: in other assays of this panel Not Active means under 50% inhibition at 10 µM
T2 sequence (P08912 whole entry): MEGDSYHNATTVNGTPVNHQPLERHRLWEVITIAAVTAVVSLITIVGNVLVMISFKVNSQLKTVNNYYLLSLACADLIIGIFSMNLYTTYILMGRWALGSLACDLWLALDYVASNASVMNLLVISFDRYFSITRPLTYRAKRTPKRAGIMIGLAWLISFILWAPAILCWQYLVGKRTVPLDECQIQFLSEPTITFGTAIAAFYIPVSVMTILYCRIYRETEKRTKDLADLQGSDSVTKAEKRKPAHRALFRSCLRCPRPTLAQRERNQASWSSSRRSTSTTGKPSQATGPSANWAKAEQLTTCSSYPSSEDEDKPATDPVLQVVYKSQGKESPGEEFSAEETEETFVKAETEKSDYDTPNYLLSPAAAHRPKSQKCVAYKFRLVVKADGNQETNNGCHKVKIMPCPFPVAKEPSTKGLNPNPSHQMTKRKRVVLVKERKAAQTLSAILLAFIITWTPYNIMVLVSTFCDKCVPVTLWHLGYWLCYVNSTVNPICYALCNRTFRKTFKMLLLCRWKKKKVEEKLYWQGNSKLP

[7] = target: Platelet-activating factor receptor (Homo sapiens, UniProt P25105); assay: biochemical; assay type: tissue-based; details: platelet; further: in other assays of this panel Not Active means under 50% inhibition at 10 µM
[8] = target: Protein phosphatase 3 catalytic subunit alpha (Homo sapiens, UniProt Q08209); set-up: species or system Escherichia coli
[9] = target: Beta-2 adrenergic receptor (Homo sapiens, UniProt P07550); assay: DRUGMATRIX: Adrenergic beta2 radioligand binding (ligand: [3H] CGP-12177); assay type: cell membranes, Membrane; details: cho; Not Active = under 50% inhibition at 10 µM
[10] = target: T3, Alpha-1A adrenergic receptor (Rattus norvegicus, UniProt P43140); assay: DRUGMATRIX: Alpha-1A adrenergic receptor radioligand binding (ligand: prazosin); assay type: cell membranes, Wistar, Submaxillary gland, Membrane; details: Not Active = under 50% inhibition at 10 µM
T3 sequence (P43140 whole entry): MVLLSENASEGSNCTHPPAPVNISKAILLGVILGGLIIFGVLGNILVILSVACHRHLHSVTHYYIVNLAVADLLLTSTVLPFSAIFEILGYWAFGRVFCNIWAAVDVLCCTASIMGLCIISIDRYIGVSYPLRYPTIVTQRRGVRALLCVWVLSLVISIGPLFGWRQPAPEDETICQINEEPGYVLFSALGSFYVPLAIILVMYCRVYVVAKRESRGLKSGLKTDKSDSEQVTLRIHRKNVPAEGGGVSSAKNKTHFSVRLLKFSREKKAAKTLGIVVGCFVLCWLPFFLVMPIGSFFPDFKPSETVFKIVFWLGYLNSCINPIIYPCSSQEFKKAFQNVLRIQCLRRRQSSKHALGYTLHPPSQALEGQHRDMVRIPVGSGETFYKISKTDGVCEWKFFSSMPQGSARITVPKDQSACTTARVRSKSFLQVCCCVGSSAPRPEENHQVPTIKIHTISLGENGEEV

Chain of Nitric oxide synthase 1 (P29476 whole entry): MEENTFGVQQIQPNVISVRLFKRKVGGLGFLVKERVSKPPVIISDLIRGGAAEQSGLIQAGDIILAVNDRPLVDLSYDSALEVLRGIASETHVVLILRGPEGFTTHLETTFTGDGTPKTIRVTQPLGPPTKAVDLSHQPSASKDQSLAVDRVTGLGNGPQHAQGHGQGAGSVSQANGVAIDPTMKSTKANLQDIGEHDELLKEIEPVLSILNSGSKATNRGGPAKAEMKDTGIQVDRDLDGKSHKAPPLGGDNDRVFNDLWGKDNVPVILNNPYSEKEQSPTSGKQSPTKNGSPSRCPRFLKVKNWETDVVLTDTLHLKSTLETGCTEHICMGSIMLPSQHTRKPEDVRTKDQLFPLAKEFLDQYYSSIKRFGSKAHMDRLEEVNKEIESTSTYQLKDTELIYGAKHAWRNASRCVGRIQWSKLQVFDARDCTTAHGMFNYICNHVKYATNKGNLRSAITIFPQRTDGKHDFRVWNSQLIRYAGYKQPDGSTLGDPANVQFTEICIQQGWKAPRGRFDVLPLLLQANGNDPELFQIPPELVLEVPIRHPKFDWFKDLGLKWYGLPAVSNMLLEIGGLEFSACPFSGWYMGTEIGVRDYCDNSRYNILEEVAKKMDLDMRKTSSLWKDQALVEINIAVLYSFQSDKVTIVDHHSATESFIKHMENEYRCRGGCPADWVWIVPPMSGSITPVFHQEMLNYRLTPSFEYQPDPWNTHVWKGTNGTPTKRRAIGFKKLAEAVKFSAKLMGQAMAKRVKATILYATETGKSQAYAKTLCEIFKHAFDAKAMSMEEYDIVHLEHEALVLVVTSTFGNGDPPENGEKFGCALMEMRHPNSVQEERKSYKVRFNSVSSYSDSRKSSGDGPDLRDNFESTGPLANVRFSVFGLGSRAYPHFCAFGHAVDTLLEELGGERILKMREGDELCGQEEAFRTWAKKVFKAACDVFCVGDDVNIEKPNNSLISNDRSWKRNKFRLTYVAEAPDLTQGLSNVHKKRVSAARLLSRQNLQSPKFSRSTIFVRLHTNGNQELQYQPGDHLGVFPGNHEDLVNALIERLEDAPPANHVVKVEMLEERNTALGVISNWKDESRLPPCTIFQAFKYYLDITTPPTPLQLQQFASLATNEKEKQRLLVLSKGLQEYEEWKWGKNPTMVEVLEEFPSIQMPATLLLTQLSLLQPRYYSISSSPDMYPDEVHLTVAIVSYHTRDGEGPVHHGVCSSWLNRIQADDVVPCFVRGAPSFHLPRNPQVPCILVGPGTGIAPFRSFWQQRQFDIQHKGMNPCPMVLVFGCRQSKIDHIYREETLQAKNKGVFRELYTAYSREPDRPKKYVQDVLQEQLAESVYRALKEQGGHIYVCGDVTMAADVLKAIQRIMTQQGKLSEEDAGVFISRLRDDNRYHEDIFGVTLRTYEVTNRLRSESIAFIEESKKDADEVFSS
Chain of Platelet-activating factor receptor (P25105 whole entry): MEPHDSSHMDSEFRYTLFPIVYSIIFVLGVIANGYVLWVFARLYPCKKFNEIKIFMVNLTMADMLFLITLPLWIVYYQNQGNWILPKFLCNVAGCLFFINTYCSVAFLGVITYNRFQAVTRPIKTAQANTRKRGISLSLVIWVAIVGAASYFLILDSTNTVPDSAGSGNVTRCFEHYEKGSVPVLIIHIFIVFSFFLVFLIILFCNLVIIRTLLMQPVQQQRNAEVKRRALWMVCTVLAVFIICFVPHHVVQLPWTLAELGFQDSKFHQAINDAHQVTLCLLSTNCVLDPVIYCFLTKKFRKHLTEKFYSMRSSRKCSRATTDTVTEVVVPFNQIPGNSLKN

Molecule	IC50 [1]	IC50 [2]	Ki [2]	IC50 [3]	Ki [3]	IC50 [4]	IC50 [5]	Ki [5]	IC50 [6]	IC50 [7]	IC50 [8]	IC50 [9]	IC50 [10]	also measured
C[C@](N)(Cc1ccc(O)cc1)C(=O)O [METYROSINE]	Not Active	Not Active	Not Active	Not Active	Not Active	Not Active	Not Active	Not Active	Not Active	Not Active	Not Active	Not Active	Not Active	–
CC1(C)[C@H]2CC[C@]1(C)C(=O)C2 [(-)-CAMPHOR]	Not Active	Not Active	Not Active	Not Active	Not Active	Not Active	Not Active	Not Active	Not Active	Not Active	Not Active	Not Active	Not Active	–
C=CC[C@@H]1/C=C(\C)C[C@H](C)C[C@H](OC)[C@H]2O[C@@](O)(C(=O)C(=O)N3CCCC[C@H]3C(=O)O[C@H](/C(C)=C/[C@@H]3CC[C@@H](O)[C@H](OC)C3)[C@H](C)[C@@H](O)CC1=O)[C@H](C)C[C@@H]2OC [TACROLIMUS ANHYDROUS]	Not Active	Not Active	Not Active	Not Active	Not Active	Not Active	Not Active	Not Active	Not Active	Not Active	Not Active	Not Active	Not Active	–
c1ccc2[nH]c(-c3cscn3)nc2c1 [THIABENDAZOLE]	Not Active	Not Active	Not Active	Not Active	Not Active	Not Active	Not Active	Not Active	Not Active	Not Active	Not Active	Not Active	Not Active	–
Cc1cc(NS(=O)(=O)c2ccc(N)cc2)no1 [SULFAMETHOXAZOLE]	Not Active	Not Active	Not Active	Not Active	Not Active	Not Active	Not Active	Not Active	Not Active	Not Active	Not Active	Not Active	Not Active	–
COc1c(C)c2c(c(O)c1C/C=C(\C)CCC(=O)OCCN1CCOCC1)C(=O)OC2 [MYCOPHENOLATE MOFETIL]	Not Active	Not Active	Not Active	Not Active	Not Active	Not Active	Not Active	Not Active	Not Active	Not Active	Not Active	Not Active	Not Active	–
Nc1ccc(S(=O)(=O)Nc2ccnn2-c2ccccc2)cc1 [SULFAPHENAZOLE]	Not Active	Not Active	Not Active	Not Active	Not Active	Not Active	Not Active	Not Active	Not Active	Not Active	Not Active	Not Active	Not Active	–
CC1CN(c2cc3c(cc2F)c(=O)c(C(=O)O)cn3-c2ccc(F)cc2F)CCN1 (configuration not stated) [TEMAFLOXACIN]	Not Active	Not Active	Not Active	Not Active	Not Active	Not Active	Not Active	Not Active	Not Active	Not Active	Not Active	Not Active	Not Active	–
IVERMECTIN	Not Active	Not Active	Not Active	Not Active	Not Active	Not Active	Not Active	Not Active	–	Not Active	Not Active	Not Active	Not Active	Ki [1]: Not Active; Ki [4]: Not Active; IC50 ([6]; read-out: IC50): 3.61 µM; Ki ([6]; read-out: Ki): 2.59 µM; Ki [7]: Not Active; Ki [8]: Not Active; Ki [9]: Not Active; Ki [10]: Not Active
CN[C@H](CC(C)C)C(=O)N[C@H]1C(=O)N[C@@H](CC(N)=O)C(=O)N[C@H]2C(=O)N[C@H]3C(=O)N[C@H](C(=O)N[C@H](C(=O)O)c4cc(O)cc(O)c4-c4cc3ccc4O)[C@H](O)c3ccc(c(Cl)c3)Oc3cc2cc(c3O[C@@H]2O[C@H](CO)[C@@H](O)[C@H](O)[C@H]2O[C@H]2C[C@](C)(N)[C@H](O)[C@H](C)O2)Oc2ccc(cc2Cl)[C@H]1O [VANCOMYCIN]	Not Active	Not Active	Not Active	Not Active	Not Active	Not Active	Not Active	Not Active	Not Active	Not Active	Not Active	Not Active	Not Active	–
